Data from patent US20030220363A1, “Use of propionyl L-carnitine for the preparation of a medicament capable of inducing apoptosis” (SIGMA-TAU INDUSTRIE FARMACEUTICHE RIUNITE S.p.A., priority 1998, published 2003).
Marks after values point to notes of the source that are not given here.

Tests used:
[1] = test system: SMC isolated from normotensive rats (WKY); experiment: DNA synthesis by tritiated thymidine incorporation, WKY SMC; type: cell-based, rat; conditions: culture day 6
Experimental: (§1) In vitro experiments were carried out to evaluate the effect of propionyl L-carnitine (PLC) on smooth muscular cells (SMC) isolated from aortae of spontaneously hypertensive rats (SHR) and, as control, on SMC isolated from normotensive rats (WKY).
(§2) These in vitro studies evidenced that PLC, when administered during culture exponential growth phase, reduces cell growth, evaluated as cell number/ml, as well as DNA synthesis, evaluated through incorporation of trititated thymidine (Tab. 4 and 5).

[2] = test system: HeLa, uterine cervix tumor; experiment: Inhibition of proliferation of neoplastic cells (Trypan Blue count), HeLa; type: cell-based, human; parameters: inhibition of proliferation after removal of PLC: dose or concentration left out as unconfirmed
Experimental: (§3) Human derived neoplastic cell, obtained from Istituto Zooprofilattico of Brescia, were cultivated. The cells used for the experiment were: U266, multiple myleopma, HeLa, uterine cervix tumor, K562, chronic myeloid leukemia cells. HeLa and K562 were cultivated in RPMI+10% FCS, while those of U266 line were cultivated in RPMI+15% FCS, both media containing Penicilline/Streptomycine (50 U/mL and 50 μg/mL). Cells were plated in 6-wells plates (Falcon). Analysis were performed in cells having 50% confluence.
(§4) Each cell line was treated with PCL according to the folowing schemes:
(§5) a) 1 mM PLC for 24 hours (FIGS. 1-3); 1 mM PLC for 48 hours (FIGS. 1-3);
[…] 4-6).
(§6) At the end of each treatment, cells were counted in Burker chamber in the presence of Trypan Blue 0.5%, diluted 1:2. Count was made for each experimental group on samples coming from three wells.

[3] = test system: rat aorta intima; experiment: Morphometric analysis of intima thickening after mechanical de-endothelialization; type: in vivo, Wistar rat; conditions: 15 days after de-endothelialization, PLC 120 mg/Kg or Enalapril 1 mg/Kg p.c. die; for Intima volume/wall (percentage ratio between intima volume and aorta wall volume): ± s.e.m., preliminary results
Experimental: (§7) Wistar male rats, weighing between […], were used for the experiments. The rats were anaesthetised with Nembutal i.p. (35 mg/kg body weight) and the thoracic portion of aorta was submitted to endothelium mechanical removal with Fogarty 2F balloon probe (Baxter USA), according to the Baugartner and Studer method(1966) with minor modification (Orlandi 1994).
(§8) Two groups were subjected to pharmacological treatment with propionyl L-carnitine (PLC, 120 mg/Kg p.c. die), one group was treated with an ACE-inhibitor (Enalapril, 1 mg/Kg p.c. die); the two remaining groups were the control. Moreover, some non-balloonized animals were used as blanks.
The entity of intima thickening after 15 days was evaluated on Verhoeff-Van Gieson stained sections, using a grid overlapped on the image, consisting of 400 points, 1 cm from each other.
The analysis was made on hystological preparates through a Hamamatsu C3077 camera controlled by a Hamamatsu DVS 3000 image analyser and connected to a Polyvar-Reichert microscope. Morphometric evaluation was made at X116 magnification. The following parameters were evaluated a) relative volume of intima referred to arterial wall; b) relative volume of tunica media referred to arterial wall, by counting the overlapping points on the intima and mean tunica.
3-12 aorta sections were used at different level for each animal. This number was a function of the structure sizes, according to Sach's formula, showing the number of fields necessary to obtain a statistically significant sample.

[4] = test system: K562, chronic myeloid leukemia cells; experiment: Inhibition of proliferation of neoplastic cells (Trypan Blue count), K562; type: cell-based, human
Experimental: as §3, §4, §5
[…] 4-6).
as §6

[5] = test system: U266, multiple myleopma; experiment: Inhibition of proliferation of neoplastic cells (Trypan Blue count), U266; type: cell-based, human
Experimental: as §3, §4, §5
[…] 4-6).
as §6

[6] = test system: smooth muscular cells (SMC) isolated from aortae of spontaneously hypertensive rats (SHR); experiment: Apoptotic cell count after Hoechst 33258 staining, SHR SMC; type: cell-based, rat
Experimental: as §1
(§9) As a further characterisation of smooth muscular cells in the presence of PLC, the percentage of apoptotic cells was measured both in basal conditions and in oxidative stress conditions. Apoptosis evaluation was carried out by counting the number of apoptotic cells present on a total of 1000 cells, after specific DNA staining with Hoechst 33258.

[7] = test system: SMC isolated from normotensive rats (WKY); experiment: Cell growth (cell number/ml) of cultured aortic SMC from WKY; type: cell-based, rat
Experimental: as §1, §2

[8] = test system: SMC isolated from normotensive rats (WKY); experiment: Apoptotic cell count after Hoechst 33258 staining, WKY SMC; type: cell-based, rat
Experimental: as §1, §9
In WKY cultures, apoptosis percentage is negligible (tab. 6)

[9] = test system: smooth muscular cells (SMC) isolated from aortae of spontaneously hypertensive rats (SHR); experiment: Cell growth (cell number/ml) of cultured aortic SMC from SHR; type: cell-based, rat
Experimental: as §1, §2

[10] = test system: smooth muscular cells (SMC) isolated from aortae of spontaneously hypertensive rats (SHR); experiment: DNA synthesis by tritiated thymidine incorporation, SHR SMC; type: cell-based, rat; conditions: culture day 6
Experimental: as §1, §2

[11] = test system: smooth muscle cells of rat aorta; experiment: In vivo proliferation of smooth muscle cells of rat aorta after mechanical de-endothelialization (anti-BrDU positive nuclei); parameters: species or system Wistar rat; conditions: for +Nuclei/total nuclei % (anti-bromodeoxyuridine positive): 15 days after de-endothelialization, PLC 120 mg/Kg or Enalapril 1 mg/Kg p.c. die, ± s.e.m., preliminary results
Experimental: as §7, §8
The animals were sacrificed 3 and 15 days after de-endothelialization. Two hours before sacrifice, all the rats received i.v. a Bromodeoxyuridine solution (BrDU) (45 mg/kg body weight) in order to verify cell proliferation. One hour before sacrifice, some randomly selected animals received 1 ml Blue Evans (1% in 0.9% NaCl solution) in order to evaluate the degree of aorta disruption.
At sacrifice, the animals were anaesthetised with i.p. Nembutal and perfused, after washing with isotonic saline containing 3% Dextran 70, with buffered formalin for 20 minutes. Aortae were isolated, slightly washed in saline and dissected longitudinally. Carotid, heart and small intestine were also excised. All the organs were post-fixed in the same fixative for 24 hours at room temperature.
In order to put in evidence proliferating cells in damaged arteries, serial sections in paraffin of aortae were deparaffined, rehydrated, immersed in a 3% H2O2 solution for 20 minutes and incubated with trypsine (0.05 M in Tris-HCl, pH 7.6) at 37° C. After that, sections were treated with 2N HCl at 37° C. for 30 minutes, washed with 0.1 M sodium tetraborate for 10 minutes, incubated with normal horse serum (Vector) and subsequently with and-BrDU monoclonal antibody (Ylem) for 1 hour. The preparates were then reacted with biotilinated anti-mouse IgG (Vector) and the Streptoavidine-ABC-POD complex (Ylem).
The reaction was evidenced by using diaminobenzidine (DAB) as final chromogen. The count of positive nuclei for BrDU was made on the total number of nuclei. Such count was blind-made by two researchers separately. The difference between the two counts was always lower than 0.5%.
All data were analysed with the T Student's test. The differences between the groups were considered to be significant for P<0.05.

In the case of `CCC(=O)O[C@H](CC(=O)[O-])C[N+](C)(C)C` [PLC, propionyl L-carnitine], the tritiated thymidine incorporation [1] is reported as 2.56E−05 μCi/μgDNA, the “inhibition of proliferation with respect to the control” value (from here on “inhibition … to the control”) ([2]; 1 mM PLC for 24 hours) is reported as 25% and the “inhibition … to the control” value ([2]; 1 mM PLC for 48 hours) is reported as 17%. The “inhibition of proliferation after removal of PLC” value (“inhibition … of PLC” for short) ([2]; 24 hours PLC, then fresh medium without the substance) was 20%, the “Reduction (% to CTR) of intima relative volume” value [3] was 31.11% and the “Intima volume/wall (percentage ratio between intima volume and aorta wall volume)” value [3] was 20.48 ± 2.73 ^(d) %. The “inhibition … to the control” value ([4]; K562, 1 mM PLC for 24 hours) was 37%, the “inhibition … to the control” value ([4]; K562, 1 mM PLC for 48 hours) was 39% and the “inhibition … of PLC” value ([4]; K562, 24 hours with 1 mM PLC, then fresh medium without the substance) was 21%. The “inhibition … to the control” value ([5]; U266, 1 mM PLC for 24 hours) was 46%, the “inhibition … to the control” value ([5]; U266, 1 mM PLC for 48 hours) was 26% and the “inhibition … of PLC” value ([5]; U266, 24 hours with 1 mM PLC, then fresh medium without the substance) was 26%. For the same compound, the apoptotic cell percentage ([6]; basal conditions) was 2%, the apoptotic cell percentage ([6]; oxidative stress) was 10% and the cell number/ml ([7]; culture day 2) was 3*10^4 ± 2 /ml. For the same compound, the cell number/ml ([7]; culture day 3) was 4*10^4 ± 2 /ml, the cell number/ml ([7]; culture day 4) was 6*10^4 ± 2 /ml and the cell number/ml ([7]; culture day 6) was 8*10^4 ± 3 /ml. The apoptotic cell percentage ([8]; basal conditions) was 0%, the apoptotic cell percentage ([8]; oxidative stress) was 2% and the cell number/ml ([9]; culture day 2) was 7*10^4 ± 4 /ml. The cell number/ml ([9]; culture day 3) was 4*10^4 ± 2 /ml, the cell number/ml ([9]; culture day 4) was 7*10^4 ± 4 /ml and the cell number/ml ([9]; culture day 6) was 20*10^4 ± 5 /ml. The tritiated thymidine incorporation [10] was 1.81E−05 μCi/μgDNA, the “Reduction % of BrDU-positive nuclei against control” value ([11]; tunica media, 3 days after de-endothelialization, PLC 120 mg/Kg p.c. die) was 59.3% and the “positive nuclei/total nuclei % (anti-bromodeoxyuridine positive)” value ([11]; tunica media, 3 days after de-endothelialization, PLC 120 mg/Kg p.c. die, ± s.e.m) was 2.59 ± 0.56%.
`CCOC(=O)[C@H](CCc1ccccc1)N[C@@H](C)C(=O)N1CCC[C@H]1C(=O)O` [Enalapril] was tested, and the “Reduction (% to CTR) of intima relative volume” value [3] was 26.14%, the “Intima volume/wall (percentage ratio between intima volume and aorta wall volume)” value [3] was 21.96 ± 1.20 ^(e) % and the “+Nuclei/total nuclei % (anti-bromodeoxyuridine positive)” value (from here on “+Nuclei/total nuclei %”) ([11]; intima tunica) was “No significant differences”. The “+Nuclei/total nuclei %” value ([11]; intima tunica, listed as enalapril) was 2.43 ± 0.39 (c) %, the “+Nuclei/total nuclei %” value ([11]; tunica media) was “No significant differences” and the “+Nuclei/total nuclei %” value ([11]; tunica media, listed as enalapril) was 0.27 ± 0.09%.
